Data published in PubChem BioAssay AID1845215 (Molecular Pharmacology Branch, DTP, NCI, 2023).
Several values for one entry are separate records, joined by “and”; a condition that tells them apart may be missing. Equal entries are not always repeated.

Tested on: SW 1271 complex tumor spheroid viability
Experiment: Anticancer human tumor SW 1271 cell line growth inhibition;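 further: spheroids exposed to agents for seven days before readout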;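 on viability, T/C: percent of DMSO vehicle control luminescence so 100% = vehicle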
Conditions: for viability, T/C: stronger effect = lower value
How it was run: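 Single agents and combinations were tested on spheroids built from tumor cells plus HUVEC and hMSC, at half-log dilutions starting at or near clinical Cmax, else 10 microM; final DMSO 0.25% (v/v).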

[1] = curve of first compound, second compound 0.003 µM
[2] = curve of first compound, second compound 0.00949 µM
[3] = curve of first compound, second compound 0.03 µM
[4] = curve of first compound, second compound 0.0949 µM
[5] = curve of first compound, second compound 0.3 µM

For `Cn1ncnc1[C@H]1c2n[nH]c(=O)c3cc(F)cc(c23)N[C@@H]1c1ccc(F)cc1` + CC[C@@]1(O)C(=O)OCc2c1cc1n(c2=O)Cc2cc3c(CN(C)C)c(O)ccc3nc2-1, the IC50 [1] was < 9.49 nM, the IC50 [2] was < 9.49 nM and the IC50 [3] was < 9.49 nM. For the same compound, the IC50 [4] was < 9.49 nM, the IC50 [5] was < 9.49 nM and the viability, T/C (second compound 0.003 µM, first compound 0.00949 µM) was 27.6%. For the same compound, the viability, T/C (second compound 0.003 µM, first compound 0.03 µM) was 23.9%, the viability, T/C (second compound 0.003 µM, first compound 0.0949 µM) was 21.4% and the viability, T/C (second compound 0.003 µM, first compound 0.3 µM) was 24.1%. It also gave a viability, T/C (second compound 0.003 µM, first compound 0.949 µM) of 23.4%, a viability, T/C (second compound 0.003 µM, first compound 3 µM) of 21.7% and a viability, T/C (second compound 0.00949 µM, first compound 0.00949 µM) of 26.2%. For the same compound, the viability, T/C (second compound 0.00949 µM, first compound 0.03 µM) was 27.6%, the viability, T/C (second compound 0.00949 µM, first compound 0.0949 µM) was 28.4% and the viability, T/C (second compound 0.00949 µM, first compound 0.3 µM) was 25.9%. For the same compound, the viability, T/C (second compound 0.00949 µM, first compound 0.949 µM) was 26.7%, the viability, T/C (second compound 0.00949 µM, first compound 3 µM) was 17.2% and the viability, T/C (second compound 0.03 µM, first compound 0.00949 µM) was 27.7%. For the same compound, the viability, T/C (second compound 0.03 µM, first compound 0.03 µM) was 28.3%, the viability, T/C (second compound 0.03 µM, first compound 0.0949 µM) was 24.2% and the viability, T/C (second compound 0.03 µM, first compound 0.3 µM) was 25.2%. For the same compound, the viability, T/C (second compound 0.03 µM, first compound 0.949 µM) was 25%, the viability, T/C (second compound 0.03 µM, first compound 3 µM) was 18% and the viability, T/C (second compound 0.0949 µM, first compound 0.00949 µM) was 22.6%. It also gave a viability, T/C (second compound 0.0949 µM, first compound 0.03 µM) of 27.9%, a viability, T/C (second compound 0.0949 µM, first compound 0.0949 µM) of 28.1% and a viability, T/C (second compound 0.0949 µM, first compound 0.3 µM) of 23.7%. For the same compound, the viability, T/C (second compound 0.0949 µM, first compound 0.949 µM) was 22%, the viability, T/C (second compound 0.0949 µM, first compound 3 µM) was 11.3% and the viability, T/C (second compound 0.3 µM, first compound 0.00949 µM) was 11.1%. For the same compound, the viability, T/C (second compound 0.3 µM, first compound 0.03 µM) was 16.5%, the viability, T/C (second compound 0.3 µM, first compound 0.0949 µM) was 11.4% and the viability, T/C (second compound 0.3 µM, first compound 0.3 µM) was 9.66%. The viability, T/C (second compound 0.3 µM, first compound 0.949 µM) was 6.32% and the viability, T/C (second compound 0.3 µM, first compound 3 µM) was 3.75%.
`CNCc1ccc(-c2cc(-c3nc(-c4ccc(S(=O)(=O)C(C)C)cc4)cnc3N)on2)cc1` was tested, and the viability, T/C (compound 0.00949 µM) was 105% and 99.4% and 104%, the viability, T/C (compound 0.03 µM) was 103% and 101% and 109% and the viability, T/C (compound 0.0949 µM) was 92% and 70.1% and 88.4%. The viability, T/C (compound 0.3 µM) was 26.4% and 24.2% and 45.3%, the viability, T/C (compound 0.949 µM) was 6.64% and 6.62% and 10.9% and the viability, T/C (compound 3 µM) was 0.13% and 0.12% and 0.2%. For the same compound, the IC50 (curve of compound) was 199 nM and 159 nM and 266 nM.
With `[2H]c1nc(C)nc([2H])c1-c1cc(NC[C@@H](C)c2cccc3c(C(=O)NC)ccnc23)ncn1` + CC[C@@]1(O)C(=O)OCc2c1cc1n(c2=O)Cc2cc3c(CN(C)C)c(O)ccc3nc2-1 the IC50 [1] was > 10000 nM, the IC50 [2] was 1350 nM and the IC50 [3] was < 31.6 nM. For the same compound, the IC50 [4] was < 31.6 nM, the IC50 [5] was < 31.6 nM and the viability, T/C (second compound 0.003 µM, first compound 0.0316 µM) was 94.2%. It also gave a viability, T/C (second compound 0.003 µM, first compound 0.1 µM) of 90.5%, a viability, T/C (second compound 0.003 µM, first compound 0.316 µM) of 95.4% and a viability, T/C (second compound 0.003 µM, first compound 1 µM) of 94.6%. For the same compound, the viability, T/C (second compound 0.003 µM, first compound 3.16 µM) was 88.9%, the viability, T/C (second compound 0.003 µM, first compound 10 µM) was 79.9% and the viability, T/C (second compound 0.00949 µM, first compound 0.0316 µM) was 58.9%. The viability, T/C (second compound 0.00949 µM, first compound 0.1 µM) was 51.1%, the viability, T/C (second compound 0.00949 µM, first compound 0.316 µM) was 58.7% and the viability, T/C (second compound 0.00949 µM, first compound 1 µM) was 48.3%. It also gave a viability, T/C (second compound 0.00949 µM, first compound 3.16 µM) of 47.9%, a viability, T/C (second compound 0.00949 µM, first compound 10 µM) of 39.4% and a viability, T/C (second compound 0.03 µM, first compound 0.0316 µM) of 36.5%. It also gave a viability, T/C (second compound 0.03 µM, first compound 0.1 µM) of 35.3%, a viability, T/C (second compound 0.03 µM, first compound 0.316 µM) of 34.5% and a viability, T/C (second compound 0.03 µM, first compound 1 µM) of 36.6%. For the same compound, the viability, T/C (second compound 0.03 µM, first compound 3.16 µM) was 34.2%, the viability, T/C (second compound 0.03 µM, first compound 10 µM) was 31.6% and the viability, T/C (second compound 0.0949 µM, first compound 0.0316 µM) was 34%. For the same compound, the viability, T/C (second compound 0.0949 µM, first compound 0.1 µM) was 32.6%, the viability, T/C (second compound 0.0949 µM, first compound 0.316 µM) was 30.1% and the viability, T/C (second compound 0.0949 µM, first compound 1 µM) was 31.4%. For the same compound, the viability, T/C (second compound 0.0949 µM, first compound 3.16 µM) was 33.1%, the viability, T/C (second compound 0.0949 µM, first compound 10 µM) was 26% and the viability, T/C (second compound 0.3 µM, first compound 0.0316 µM) was 19.9%. It also gave a viability, T/C (second compound 0.3 µM, first compound 0.1 µM) of 17.5%, a viability, T/C (second compound 0.3 µM, first compound 0.316 µM) of 15.1% and a viability, T/C (second compound 0.3 µM, first compound 1 µM) of 17%. The viability, T/C (second compound 0.3 µM, first compound 3.16 µM) was 14.2% and the viability, T/C (second compound 0.3 µM, first compound 10 µM) was 8.53%.
